# Data published in patent US20020026053A1, “Novel 3-(substituted) -2- indolinones compounds and use thereof as inhibitors of protein kinase activity” (priority 1997, published 2002).
# Target: T1, EGFR (Homo sapiens, UniProt P00533)
# T1 construct: endogenous in cells; host or cells: A431 cells (lysate, captured with SUMO1 anti-EGFR antibody)
# Test: Biochemical EGFR Assay
# Parameters: concentration or dose not given beside the values
# Details: protocol P.167
# Summary of the method: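 Readout is ABTS absorbance at 410 nm after anti-phosphotyrosine and HRP-antibody detection of EGFR autophosphorylation. The kinase was immunocaptured from A431 lysate, exposed 30 min to test compound diluted 1:10 in TBS, then phosphorylated for 5 min with ATP/MnCl2 before an EDTA stop.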
# T1 sequence (P00533 25-1210): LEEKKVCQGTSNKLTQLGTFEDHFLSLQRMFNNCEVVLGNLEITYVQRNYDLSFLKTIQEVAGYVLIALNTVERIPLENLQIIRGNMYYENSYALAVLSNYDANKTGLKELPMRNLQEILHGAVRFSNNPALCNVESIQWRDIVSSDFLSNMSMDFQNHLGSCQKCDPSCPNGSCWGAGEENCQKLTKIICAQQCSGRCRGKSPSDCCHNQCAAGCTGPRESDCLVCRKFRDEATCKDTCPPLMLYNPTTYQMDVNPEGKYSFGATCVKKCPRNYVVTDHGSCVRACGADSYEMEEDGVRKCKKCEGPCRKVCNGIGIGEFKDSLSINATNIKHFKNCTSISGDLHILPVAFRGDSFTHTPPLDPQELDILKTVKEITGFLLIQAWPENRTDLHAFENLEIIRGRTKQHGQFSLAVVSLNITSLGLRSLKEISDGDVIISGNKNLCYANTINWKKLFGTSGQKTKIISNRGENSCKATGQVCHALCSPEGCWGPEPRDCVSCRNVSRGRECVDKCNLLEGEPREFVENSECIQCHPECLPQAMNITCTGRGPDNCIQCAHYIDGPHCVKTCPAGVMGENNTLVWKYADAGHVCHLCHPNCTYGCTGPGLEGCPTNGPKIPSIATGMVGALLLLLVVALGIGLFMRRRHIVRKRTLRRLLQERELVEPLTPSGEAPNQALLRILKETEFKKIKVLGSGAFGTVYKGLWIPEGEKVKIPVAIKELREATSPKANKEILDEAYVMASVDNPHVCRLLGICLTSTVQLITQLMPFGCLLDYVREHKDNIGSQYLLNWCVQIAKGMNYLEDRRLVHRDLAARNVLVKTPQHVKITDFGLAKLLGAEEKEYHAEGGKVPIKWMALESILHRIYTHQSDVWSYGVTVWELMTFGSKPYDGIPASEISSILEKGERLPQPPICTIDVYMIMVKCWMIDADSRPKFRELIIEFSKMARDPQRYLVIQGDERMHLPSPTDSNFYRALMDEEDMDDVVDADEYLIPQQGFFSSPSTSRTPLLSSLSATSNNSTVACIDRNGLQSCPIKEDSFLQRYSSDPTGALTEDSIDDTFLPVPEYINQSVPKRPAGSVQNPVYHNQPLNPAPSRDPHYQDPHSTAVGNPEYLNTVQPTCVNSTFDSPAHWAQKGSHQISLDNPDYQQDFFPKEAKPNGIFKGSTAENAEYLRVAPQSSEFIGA
row,SMILES,Biochem EGFR % Inhibition (P.167) [%]
1,COC1CCCN1C=C1C(=O)Nc2c(Br)cc(Br)cc21 (racemic) [10740/A04],5.2
2,COC1CCCN1C=C1C(=O)Nc2ccc(I)cc21 (racemic) [10740/B04],36.9
3,Cc1c(Br)cc(Br)c2c1C(=Cc1ccc(CO)o1)C(=O)N2 [10739/H11],49.9
4,O=C1Nc2c(Br)cc(Br)cc2C1=Cc1cnc2ccccc2c1 [10740/A02],−2.4
5,O=C1Nc2c(Br)cc(Br)cc2C1=Cc1ccnc2ccccc12 [10740/A03],8.2
6,O=C1Nc2c(Br)cc(Br)cc2C1=Cc1ccsc1 [10740/A05],30.3
7,O=C1Nc2c(Br)cc(Br)cc2C1=Cc1ccc2ccccc2n1 [10740/A06],13.1
8,Cn1cc(C=C2C(=O)Nc3c(Br)cc(Br)cc32)c2ccccc21 [10740/A07],18.7
9,Cc1[nH]c2ccccc2c1C=C1C(=O)Nc2c(Br)cc(Br)cc21 [10740/A08],−7.9
10,O=C1Nc2c(Br)cc(Br)cc2C1=Cc1cc(Br)cs1 [10740/A10],21.9
11,CCCCOc1ccc(C=C2C(=O)Nc3c(Br)cc(Br)cc32)cc1 [10740/A11],26.0
12,O=C1Nc2ccc(I)cc2C1=Cc1cnc2ccccc2c1 [10740/B02],46.1
13,O=C1Nc2ccc(I)cc2C1=Cc1ccnc2ccccc12 [10740/B03],40.1
14,O=C1Nc2ccc(I)cc2C1=Cc1ccsc1 [10740/B05],30.7
15,O=C1Nc2ccc(I)cc2C1=Cc1ccc2ccccc2n1 [10740/B06],44.4
16,Cn1cc(C=C2C(=O)Nc3ccc(I)cc32)c2ccccc21 [10740/B07],48.9
17,Cc1[nH]c2ccccc2c1C=C1C(=O)Nc2ccc(I)cc21 [10740/B08],34.8
18,O=C1Nc2ccc(I)cc2C1=Cc1cc(Br)cs1 [10740/B10],39.9
19,CCCCOc1ccc(C=C2C(=O)Nc3ccc(I)cc32)cc1 [10740/B11],48.1
20,Cc1c(Br)ccc2c1C(=Cc1cnc3ccccc3c1)C(=O)N2 [10740/C02],15.6
21,Cc1c(Br)ccc2c1C(=Cc1ccnc3ccccc13)C(=O)N2 [10740/C03],7.2
22,COC1CCCN1C=C1C(=O)Nc2ccc(Br)c(C)c21 (stereo not shown) [10740/C04],7.8
23,Cc1c(Br)ccc2c1C(=Cc1ccsc1)C(=O)N2 [10740/C05],3.5
24,Cc1c(Br)ccc2c1C(=Cc1ccc3ccccc3n1)C(=O)N2 [10740/C06],18.2
25,Cc1c(Br)ccc2c1C(=Cc1cn(C)c3ccccc13)C(=O)N2 [10740/C07],5.0

row,SMILES,Biochem EGFR % Inhibition (P.167) [%]
1,Cc1[nH]c2ccccc2c1C=C1C(=O)Nc2ccc(Br)c(C)c21 [10740/C08],10.7
2,Cc1c(Br)ccc2c1C(=Cc1cc(Br)cs1)C(=O)N2 [10740/C10],21.9
3,CCCCOc1ccc(C=C2C(=O)Nc3ccc(Br)c(C)c32)cc1 [10740/C11],18.7
4,CNS(=O)(=O)c1ccc2c(c1)C(=Cc1cnc3ccccc3c1)C(=O)N2 [10740/D02],0.0
5,CNS(=O)(=O)c1ccc2c(c1)C(=Cc1ccnc3ccccc13)C(=O)N2 [10740/D03],−6.9
6,CNS(=O)(=O)c1ccc2c(c1)C(=CN1CCCC1OC)C(=O)N2 (stereo not shown) [10740/D04],−1.2
7,CNS(=O)(=O)c1ccc2c(c1)C(=Cc1ccsc1)C(=O)N2 [10740/D05],7.4
8,CNS(=O)(=O)c1ccc2c(c1)C(=Cc1ccc3ccccc3n1)C(=O)N2 [10740/D06],5.8
9,CNS(=O)(=O)c1ccc2c(c1)C(=Cc1cn(C)c3ccccc13)C(=O)N2 [10740/D07],−3.0
10,CNS(=O)(=O)c1ccc2c(c1)C(=Cc1c(C)[nH]c3ccccc13)C(=O)N2 [10740/D08],−5.7
11,CNS(=O)(=O)c1ccc2c(c1)C(=Cc1cc(Br)cs1)C(=O)N2 [10740/D10],9.9
12,CCCCOc1ccc(C=C2C(=O)Nc3ccc(S(=O)(=O)NC)cc32)cc1 [10740/D11],19.3
13,O=C1Nc2ccc(S(=O)(=O)Nc3ccc(C(F)(F)F)cc3)cc2C1=Cc1cnc2ccccc2c1 [10740/E02],−7.7
14,O=C1Nc2ccc(S(=O)(=O)Nc3ccc(C(F)(F)F)cc3)cc2C1=Cc1ccnc2ccccc12 [10740/E03],24.6
15,COC1CCCN1C=C1C(=O)Nc2ccc(S(=O)(=O)Nc3ccc(C(F)(F)F)cc3)cc21 (stereo not shown) [10740/E04],12.3
16,O=C1Nc2ccc(S(=O)(=O)Nc3ccc(C(F)(F)F)cc3)cc2C1=Cc1ccsc1 [10740/E05],29.1
17,O=C1Nc2ccc(S(=O)(=O)Nc3ccc(C(F)(F)F)cc3)cc2C1=Cc1ccc2ccccc2n1 [10740/E06],0.0
18,Cn1cc(C=C2C(=O)Nc3ccc(S(=O)(=O)Nc4ccc(C(F)(F)F)cc4)cc32)c2ccccc21 [10740/E07],2.7
19,Cc1[nH]c2ccccc2c1C=C1C(=O)Nc2ccc(S(=O)(=O)Nc3ccc(C(F)(F)F)cc3)cc21 [10740/E08],3.1
20,O=C1Nc2ccc(S(=O)(=O)Nc3ccc(C(F)(F)F)cc3)cc2C1=Cc1cc(Br)cs1 [10740/E10],33.0
21,CCCCOc1ccc(C=C2C(=O)Nc3ccc(S(=O)(=O)Nc4ccc(C(F)(F)F)cc4)cc32)cc1 [10740/E11],8.8
22,O=C1Nc2ccc(S(=O)(=O)N3CCOCC3)cc2C1=Cc1cnc2ccccc2c1 [10740/F02],5.8
23,O=C1Nc2ccc(S(=O)(=O)N3CCOCC3)cc2C1=Cc1ccnc2ccccc12 [10740/F03],16.8
24,COC1CCCN1C=C1C(=O)Nc2ccc(S(=O)(=O)N3CCOCC3)cc21 (stereo not shown) [10740/F04],11.1
25,O=C1Nc2ccc(S(=O)(=O)N3CCOCC3)cc2C1=Cc1ccsc1 [10740/F05],14.8

row,SMILES,Biochem EGFR % Inhibition (P.167) [%]
1,O=C1Nc2ccc(S(=O)(=O)N3CCOCC3)cc2C1=Cc1ccc2ccccc2n1 [10740/F06],19.9
2,Cn1cc(C=C2C(=O)Nc3ccc(S(=O)(=O)N4CCOCC4)cc32)c2ccccc21 [10740/F07],−4.2
3,Cc1[nH]c2ccccc2c1C=C1C(=O)Nc2ccc(S(=O)(=O)N3CCOCC3)cc21 [10740/F08],5.0
4,O=C1Nc2ccc(S(=O)(=O)N3CCOCC3)cc2C1=Cc1cc(Br)cs1 [10740/F10],9.5
5,CCCCOc1ccc(C=C2C(=O)Nc3ccc(S(=O)(=O)N4CCOCC4)cc32)cc1 [10740/F11],5.4
6,O=C1Nc2ccc(CCCl)cc2C1=Cc1cnc2ccccc2c1 [10740/G02],−9.4
7,O=C1Nc2ccc(CCCl)cc2C1=Cc1ccnc2ccccc12 [10740/G03],19.5
8,COC1CCCN1C=C1C(=O)Nc2ccc(CCCl)cc21 (stereo not shown) [10740/G04],7.6
9,O=C1Nc2ccc(CCCl)cc2C1=Cc1ccsc1 [10740/G05],18.7
10,O=C1Nc2ccc(CCCl)cc2C1=Cc1ccc2ccccc2n1 [10740/G06],−1.2
11,Cn1cc(C=C2C(=O)Nc3ccc(CCCl)cc32)c2ccccc21 [10740/G07],27.9
12,Cc1[nH]c2ccccc2c1C=C1C(=O)Nc2ccc(CCCl)cc21 [10740/G08],−9.1
13,O=C1Nc2ccc(CCCl)cc2C1=Cc1cc(Br)cs1 [10740/G10],1.9
14,CCCCOc1ccc(C=C2C(=O)Nc3ccc(CCCl)cc32)cc1 [10740/G11],−3.4
15,Cc1c(Br)cc(Br)c2c1C(=Cc1cnc3ccccc3c1)C(=O)N2 [10740/H02],−9.1
16,Cc1c(Br)cc(Br)c2c1C(=Cc1ccnc3ccccc13)C(=O)N2 [10740/H03],16.0
17,COC1CCCN1C=C1C(=O)Nc2c(Br)cc(Br)c(C)c21 (stereo not shown) [10740/H04],−21.0
18,Cc1c(Br)cc(Br)c2c1C(=Cc1ccsc1)C(=O)N2 [10740/H05],−4.4
19,Cc1c(Br)cc(Br)c2c1C(=Cc1ccc3ccccc3n1)C(=O)N2 [10740/H06],4.8
20,Cc1c(Br)cc(Br)c2c1C(=Cc1cn(C)c3ccccc13)C(=O)N2 [10740/H07],−5.3
21,Cc1[nH]c2ccccc2c1C=C1C(=O)Nc2c(Br)cc(Br)c(C)c21 [10740/H08],−24.3
22,Cc1c(Br)cc(Br)c2c1C(=Cc1cc(Br)cs1)C(=O)N2 [10740/H10],−25.5
23,CCCCOc1ccc(C=C2C(=O)Nc3c(Br)cc(Br)c(C)c32)cc1 [10740/H11],0.9
